This is an account of results in patent US4272437A, “Antibacterial agents, and 4-thio azetidinone intermediates” (priority 1979, dated 1981).

SMILES strings stand for the structures. Converted amounts (≈) assume the structure as drawn. Read-outs that look alike come from different tables or passages of the source. Some results are limits rather than exact numbers.

The subject of assay [1] is Ent. cloacae A-9659. Briefly: MIC, tube dilution, Enterobacter cloacae A9659. The assay is classed as cell-based. The note with it: Enterobacter cloacae, A9659, Enterobacter cloacae A9659; overnight 37° C.; read-out: Minimum Inhibitory Concentration (M.I.C.). The text has this: (§1) Representative compounds of the present invention were subjected to in vitro antibiotic screening against a variety of microorganisms.

For assay [2], the system named is Pr. mirabilis A-9900. As to the kind of experiment: MIC, tube dilution, Proteus mirabilis A9900. The assay is classed as cell-based. The note with it: Proteus mirabilis, A9900, Proteus mirabilis A9900; overnight 37° C.; read-out: Minimum Inhibitory Concentration (M.I.C.).
Text: as §1

The subject of assay [3] is Klebsiella species A20468. Briefly: MIC, tube dilution, Klebsiella species A20468. The assay is classed as cell-based. The note with it: Klebsiella species (K. pneumoniae) A20468; overnight 37° C.; read-out: Minimum Inhibitory Concentration (M.I.C.).
Text: as §1

For assay [4], the system named is Str. pneumoniae A-9585. As to the kind of experiment: MIC, tube dilution, Streptococcus pneumoniae A9585. The assay is classed as cell-based. The note with it: overnight 37° C., Nutrient Broth; for MIC: Streptococcus pneumoniae, A9585, Str. pneumoniae A9585, read-out: Minimum Inhibitory Concentration (M.I.C.).
Text: as §1

In assay [5] the test system is Staph. aureus (Pen-Res) A-9606. Briefly: MIC, tube dilution, Staphylococcus aureus A9606 (Pen-Res). The assay is classed as cell-based. The note with it: Staphylococcus aureus, overnight 37° C.
Text: as §1

Assay [6] deals with E. coli A-20341-1. As to the kind of experiment: MIC, tube dilution, Escherichia coli A20341-1. It counts as cell-based. The note with it: Escherichia coli, A203411; E. coli A20341-1; overnight 37° C.; read-out: Minimum Inhibitory Concentration (M.I.C.).
Text: as §1

The test system of assay [7] is Pr. morganii A-15153. Briefly: MIC, tube dilution, Proteus morganii A15153. The assay is classed as cell-based. The note with it: Morganella morganii, A15153, Proteus morganii A15153; overnight 37° C.; read-out: Minimum Inhibitory Concentration (M.I.C.).
Text: as §1

Assay [8] concerns K. pneumoniae A-15130. As to the kind of experiment: MIC, tube dilution, Klebsiella pneumoniae A15130. The note with it: Klebsiella pneumoniae, A15130, K. pneumoniae A15130; overnight 37° C.; read-out: Minimum Inhibitory Concentration (M.I.C.). The assay is classed as cell-based.
Text: as §1

Assay [9] relates to Staph. aureus (Meth-Res) A-15097. Briefly: MIC, tube dilution, Staphylococcus aureus A15097 (Meth-Res). The assay is classed as cell-based. The note with it: Staphylococcus aureus, read-out: Minimum Inhibitory Concentration (M.I.C.), Staph. aureus A15097 (Meth-Res); overnight 37° C.
Text: as §1

Assay [10] has as its system E. coli A-15119. Briefly: MIC, tube dilution, Escherichia coli A15119. The assay is classed as cell-based. The note with it: Escherichia coli, A15119, E. coli A15119; overnight 37° C.; read-out: Minimum Inhibitory Concentration (M.I.C.).
Text: as §1

The subject of assay [11] is Staph. aureus A-9537 and 50% serum. As to the kind of experiment: MIC, tube dilution, Staph. aureus A9537 + 50% serum. The assay is classed as cell-based, Staphylococcus aureus. The note with it: Staphylococcus aureus, overnight 37° C., read-out: Minimum Inhibitory Concentration (M.I.C.).
Text: as §1

Assay [12] relates to Ser. marcescens A-20019. Briefly: MIC, tube dilution, Serratia marcescens A20019. It counts as cell-based. The note with it: Serratia marcescens, A20019, Serratia marcescens A20019; overnight 37° C.; read-out: Minimum Inhibitory Concentration (M.I.C.).
Text: as §1

The subject of assay [13] is Str. faecalis A-20688. Briefly: MIC, tube dilution, Streptococcus faecalis A20688. The assay is classed as cell-based. The note with it: Enterococcus faecalis, A20688, Str. faecalis A20688; overnight 37° C.; read-out: Minimum Inhibitory Concentration (M.I.C.).
Text: as §1

Assay [14] deals with Str. pyogenes A-9604. As to the kind of experiment: MIC, tube dilution, Streptococcus pyogenes A9604. The assay is classed as cell-based. The note with it: overnight 37° C., Nutrient Broth; for MIC: Streptococcus pyogenes, A9604, Str. pyogenes A9604, read-out: Minimum Inhibitory Concentration (M.I.C.).
Text: as §1

Assay [15] has as its system Staph. aureus A-9537. Briefly: MIC, tube dilution, Staphylococcus aureus A9537. The assay is classed as cell-based. The note with it: overnight 37° C., Nutrient Broth; for MIC: Staphylococcus aureus, A9537, Staph. aureus A9537, read-out: Minimum Inhibitory Concentration (M.I.C.).
Text: as §1

Assay [16] concerns Ps. aeruginosa A-9843A. Briefly: MIC, tube dilution, Pseudomonas aeruginosa A9843A. The note with it: Pseudomonas aeruginosa, A9843A, read-out: Minimum Inhibitory Concentration (M.I.C.), Pseudomonas aeruginosa A9843A; overnight 37° C. The assay is classed as cell-based.
Text: as §1

The test system of assay [17] is Pr. vulgaris A-9716. Briefly: MIC, tube dilution, Proteus vulgaris / Proteus mirabilis A9716. The assay is classed as cell-based, Proteus vulgaris (name changed to Proteus mirabilis). The note with it: Proteus vulgaris, overnight 37° C.
Text: as §1

The subject of assay [18] is Ent. cloacae A-9656. As to the kind of experiment: MIC, tube dilution, Enterobacter cloacae A9656. The assay is classed as cell-based. The note with it: overnight 37° C., read-out: Minimum Inhibitory Concentration (M.I.C.).
Text: as §1

Assay [19] deals with Proteus rettgeri A21203. As to the kind of experiment: MIC, tube dilution, Proteus rettgeri A21203. The assay is classed as cell-based. The note with it: Providencia rettgeri, overnight 37° C., read-out: Minimum Inhibitory Concentration (M.I.C.).
Text: as §1

Assay [20] concerns Ps. aeruginosa A-21213. Briefly: MIC, tube dilution, Pseudomonas aeruginosa A21213. The assay is classed as cell-based. The note with it: Pseudomonas aeruginosa A21213; overnight 37° C.; read-out: Minimum Inhibitory Concentration (M.I.C.).
Text: as §1

Where [21] appears, read: read-out: Minimum Inhibitory Concentration (M.I.C.), Staph. aureus A9606 (Pen-Res).
Setting [22] is: A9716, read-out: Minimum Inhibitory Concentration (M.I.C.), Proteus vulgaris / Proteus mirabilis A9716.
The mark [23] stands for this setting: Staph. aureus A9606 (Pen-Res), read-out: Minimum Inhibitory Concentration (M.I.C.).
[24] abbreviates: A9716, Proteus vulgaris / Proteus mirabilis A9716, read-out: Minimum Inhibitory Concentration (M.I.C.).
Where [25] appears, read: A21203, Proteus rettgeri A21203.

As to `O=C([O-])C1=C(Cc2ccco2)S[C@@H]2CC(=O)N12.[Na+]` [Preparation 18, Sodium 2-(2-Furylmethyl)penem-3-carboxylate], the MIC in [1] was 16 µg/mL; in assay [2] it was 2 µg/mL; in [3], over 125 µg/mL; in assay [4] it was 0.06 µg/mL; in assay [5] (setting [21]) it was 1 µg/mL; in [6], over 125 µg/mL. The MIC is 8 µg/mL in assay [7]; 32 µg/mL in assay [8]; 16 µg/mL in assay [9]; 2 µg/mL in assay [10]; over 63 µg/mL in assay [11]; 32 µg/mL in assay [12]. For the same compound, the MIC in [13] is 63 µg/mL; in assay [14], 0.25 µg/mL; in assay [15], 0.5 µg/mL; in [16], over 125 µg/mL; in [17] (setting [22]) it was 2 µg/mL; in assay [18] (Enterobacter cloacae A9656), 32 µg/mL. Besides, the figures for the MIC in [19] (Proteus rettgeri A21203) and in assay [20] were 4 µg/mL and over 125 µg/mL, respectively.

For `O=C(O)C1=C(Cc2c[nH]c3ccccc23)SC2CC(=O)N12` (centres unmarked) [Preparation 19, 2-(3'-Indole)methylpenem-3-carboxylic Acid], the MIC in assay [1] was 63 µg/mL (≈ 210 µM); in [2] it was 1 µg/mL (≈ 3.33 µM); in assay [3], over 125 µg/mL; in [4], 0.03 µg/mL (≈ 0.0999 µM); in [5] (setting [23]), 0.5 µg/mL (≈ 1.66 µM); in assay [6], over 125 µg/mL. In addition, the MIC in [7] came to 2 µg/mL (≈ 6.66 µM); in assay [8], 32 µg/mL (≈ 107 µM); in assay [9], 125 µg/mL (≈ 416 µM); in assay [10] it was 8 µg/mL (≈ 26.6 µM); in assay [11], 32 µg/mL; in assay [12] it was 63 µg/mL (≈ 210 µM). The MIC is 125 µg/mL (≈ 416 µM) in assay [13]; 0.06 µg/mL (≈ 0.2 µM) in [14]; 0.03 µg/mL (≈ 0.0999 µM) in assay [15]; over 125 µg/mL in assay [16]; 2 µg/mL (≈ 6.66 µM) in assay [17] (setting [24]); 63 µg/mL (≈ 210 µM) in assay [18] (Enterobacter cloacae, A9656, Enterobacter cloacae A9656). Besides, the results for the MIC in assay [19] (setting [25]) and in assay [20] were 2 µg/mL (≈ 6.66 µM) and over 125 µg/mL, respectively.

Turning to `O=C([O-])C1=C(Cc2ccccc2)S[C@@H]2CC(=O)N12.[Na+]` [Preparation 21, Sodium 2-Benzylpenem-3-carboxylate], the MIC in [1] was 63 µg/mL; in assay [2], 1 µg/mL; in assay [3], 125 µg/mL; in assay [5] (setting [21]), 1 µg/mL; in assay [6], 125 µg/mL; in assay [7], 4 µg/mL. The MIC in assay [8] was 125 µg/mL; in assay [9], 32 µg/mL; in [10], 4 µg/mL; in [11], over 63 µg/mL; in assay [12], 63 µg/mL; in assay [13], 32 µg/mL. The MIC worked out at 125 µg/mL in assay [16]; 2 µg/mL in assay [17] (setting [22]); 32 µg/mL in assay [18] (Enterobacter cloacae A9656); 4 µg/mL in assay [19] (Proteus rettgeri A21203); 125 µg/mL in assay [20]. Moreover, the “Minimum Inhibitory Concentration (M.I.C.)” value was 2 µg/mL in [4] (Str. pneumoniae A9585), 8 µg/mL in assay [14] (Str. pyogenes A9604) and “.06 µg/mL” in [15] (Staph. aureus A9537).

For the compound `CC(C)(C)CC1=C(C(=O)O)N2C(=O)CC2S1` (centres unmarked) [Preparation 23, 2-(2',2'-Dimethylpropyl)penem-3-carboxylate], the MIC was 125 µg/mL (≈ 518 µM) in [1]; 2 µg/mL (≈ 8.29 µM) in [2]; over 125 µg/mL in assay [3]; 0.25 µg/mL (≈ 1.04 µM) in assay [4]; 32 µg/mL (≈ 133 µM) in assay [5] (setting [23]); over 125 µg/mL in [6]. The MIC was 63 µg/mL (≈ 261 µM) in [7]; 125 µg/mL (≈ 518 µM) in assay [8]; 125 µg/mL (≈ 518 µM) in assay [9]; 16 µg/mL (≈ 66.3 µM) in [10]; over 63 µg/mL in assay [11]; 125 µg/mL (≈ 518 µM) in [12]. For the same compound, the MIC in assay [13] was over 125 µg/mL; in assay [14], 0.25 µg/mL (≈ 1.04 µM); in assay [15] it was 0.25 µg/mL (≈ 1.04 µM); in assay [16] it was over 125 µg/mL; in assay [17] (setting [24]) it was 4 µg/mL (≈ 16.6 µM); in assay [18] (Enterobacter cloacae A9656), over 125 µg/mL. Also, the figures for the MIC in assay [19] (setting [25]) and in assay [20] were 32 µg/mL (≈ 133 µM) and over 125 µg/mL, respectively.
